Data as given in US20190062761A1, “ULTRASOUND METHOD” (INSTITUTE OF SCIENCE AND TECHNOLOGY AUSTRIA (IST AUSTRIA), priority 2016, published 2019).

Tests used:
[1] = tested on: M38K^Opto-mFGFR1 cells; assay: EMT-like morphology changes (aspect ratio) in M38K Opto-mFGFR1 cells in response to luminol SCL; format: cell-based
Procedure: After additional 24 h, cells were photographed on the Nikon Ti300 microscope.

[2] = tested on: light-activated gene transcription plasmid pDAWN; assay: Induction of mCherry expression by SCL and pDAWN in E. coli; format: cell-based
Procedure: (§1) For starting cultures, E. coli BL21 (DE) cells transformed with pDAWN were grown overnight (225 rpm, 37° C.) in LB medium (pH 7.0; Sigma) supplemented with 50 μg/ml kanamycin (Sigma). Cells were then diluted 100-fold in fresh LB medium (pH 8.0) and growth was allowed to reach OD600˜0.4 (7.3×10^7 CFU/ml) under non-inducing conditions (i.e. in the dark). For US experiments, 250 ml of these cultures were centrifuged (4700 rpm, 5 min) and resuspended in 200 ml M9 minimal medium (1×M9 salts, 2 mM MgSO4, 0.1 mM CaCl2, 0.4% glucose, buffered with 0.05 M Tris, pH 9.0). Each culture was treated with US for 3 h. After stimulation, aliquots (50 ml) were centrifuged, resuspended (in M9 minimal media) and incubated in 96-well plates overnight under non-inducing conditions (dark) to allow mCherry maturation.

[3] = tested on: E. coli; conditions: treatment with US and luminol for 3 h (20 mM luminol, pH 9), M9 minimal media
Procedure: as §1
OD600 and mCherry fluorescence emission spectra (λex=543±10 nm, λem=575 to 695 nm in 10 nm increments) were measured with a (Biotek Synergy H1) microplate reader in a black 96-well flat-bottom plates (typical volume was 200 μl).

For `COc1cc(OC)cc(-c2cc3cnc(N)nc3nc2NC(=O)NC(C)(C)C)c1` [PD166866], the “effect of luminol SCL on cell morphology after pre-treatment with inhibitor” value ([1]; 10 μM for 1 h before US stimulation (585 kHz, 64% amplitude, 3 h)) was “abolished”.
For `COc1ccc(-c2cn3c(=O)c(C)nc-3c[nH]2)cc1.Cl` [MCLA, 6-(4-Methoxyphenyl)-2-methyl-3,7-dihydroimidazo[1,2-a]pyrazin-3-one Hydrochloride], the “induction of mCherry expression” value ([2]; MCLA-catalyzed SCL, pDAWN-V28I, 2 h US stimulation, 2 μM MCLA, pH 7) was “two”.
`Nc1cccc2c(=O)[nH][nH]c(=O)c12` [luminol, 5-Amino-2,3-dihydro-1,4-phthalazinedione] was tested, and the “morphological changes in M38K^Opto-mFGFR1 cells” value ([1]; luminol SCL, two chambers configuration, 20 mM luminol, US 585 kHz, 64% amplitude, 3 h) was “induced epithelial-mesenchymal transition (EMT)-like morphological changes”, the “induction of mCherry production (increase compared to control experiments)” value ([2]; {}) was about 5 fold and the “reduction of E. coli viability indicators (OD600 and CFUs)” value [3] was about 50%.
